This test has as its system macrophages. The test can be described thus: IL-4-induced macrophage fusion (fusion index). The test is classed as cell-based, mouse. The procedure: To test the rates of cell fusion on the above described glass slides with a pattern surface, monocytes or macrophages are collected according to standard protocols and applied to hydrocarbon chain surface. After 30 minutes, the cultures are washed 3 times rapidly with phosphate-buffered saline to remove unbound cells, and complete cell culture medium (DMEM:F12, 10% FBS, 1% antibiotics) is applied to the culture for about 2 hours. After about 2 hours, about 10 ng/ml of interleukin-4 is applied to the culture to induce fusion and the culture is incubated until the respective time point.
Macrophages were isolated from the mouse peritoneum 72 hr after injection of a sterile 4% solution of Brewer's thioglycollate (Sigma Aldrich, St. Louis, Mo.). […] Immediately following euthanasia, 5 mL of an ice-cold solution of phosphate-buffered saline (PBS, pH 7.4) supplemented with 5 mM EDTA was injected aseptically into the peritoneum, the lavage containing cells was collected, and the cells were counted with a Neubauer hemocytometer. […]
Peritoneal lavage cells were applied to various surfaces at a concentration of 2,000 cells/mm2 and incubated in 5% CO2 at 37° C. for 30 min. […] The extent of MGCs formation was evaluated by determining the fusion index. […] Three to 5 bright field images collected at 20× objective magnification were analyzed per specimen.

Structures are written as SMILES. Entries after “also recorded” stand apart in the source; their conditions may differ.

We go through one molecule from patent US11591574B2, “Optical-quality surface that imparts spatial control of macrophage fusion” (ARIZONA BOARD OF REGENTS ON BEHALF OF ARIZONA STATE …, priority 2016, dated 2023).

Regarding `CCCCCCCC/C=C\CCCCCCCC(N)=O` [oleamide], the “increase in fusion versus clean glass” value (adsorption onto clean glass) was about 4 fold. Besides, where the note is “hydrocarbon deposited on optical-quality glass, IL-4 induced”, the “level of macrophage fusion” value is “high-levels; also recorded: high levels”.
